Data taken from patent US9375000B2, “Pesticidal arylpyrrolidines” (Bayer Intellectual Property GmbH, priority 2011, dated 2016).

How the values were obtained:
Ctenocephalides felis = assay: Test against Ctenocephalides felis (CTECFE), blood feeding; type: in vivo; settings: Ctenocephalides felis, in Bos taurus, 48 h, read-out: activity (mortality)
[1] = test system: Two-Spotted Spider Mite (Tetranychus urticae); assay: Two-spotted spider mite (Tetranychus urticae) spray test on kidney bean; type: in vivo; settings: Tetranychus urticae, 168 h, after 7 days, read-out: acaricidal activity; for pest or weed control at 20 ppm: active compound concentration 20 ppm
How it was run: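 Kidney bean plants at the two-leaf stage carried 50-100 adult mites and were sprayed one day later with compound in DMF/polyoxyethylene alkyl phenyl ether diluted in water. Ammonium salt and penetration enhancer at 1000 ppm were added if needed. Acaricidal activity (% mites killed) was scored after 7 days in a greenhouse.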

[2] = test system: Cucurbit Leaf Beetle (Aulacophora femoralis); assay: Cucurbit leaf beetle (Aulacophora femoralis) cucumber leaf dip test; type: in vivo; settings: after 7 days; for pest or weed control at 20 ppm / pest or weed control at 4 ppm: Aulacophora, foliar, 168 h, read-out: insecticidal activity; for pest or weed control at 4 ppm: active compound concentration 4 ppm
How it was run: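 Cucumber leaves dipped in compound formulated with DMF and polyoxyethylene alkyl phenyl ether, diluted in water, with ammonium salt or ammonium salt plus penetration enhancer at 1000 ppm added if necessary; dried leaves placed on sterilized soil with five second-instar larvae. Kept at 25° C; larval mortality counted after 7 days.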

[3] = test system: Larvae of Spodoptera litura; assay: Larvae of Spodoptera litura, method using artificial feeds; type: in vivo; settings: Spodoptera litura, 168 h, artificial feed, after 7 days, read-out: insecticidal activity (pesticidal ratio); for pest or weed control at 20 ppm: active compound concentration 20 ppm; for pest or weed control at 4 ppm: active compound concentration 4 ppm
How it was run: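 Compound formulated in dimethylformamide with polyoxyethylene alkyl phenyl ether emulsifier, water-diluted and poured onto artificial diet. Five 3rd-instar Spodoptera litura larvae per cup, held at 25° C and 50-60% humidity. Mortality after 7 days expressed as pesticidal ratio.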

[4] = test system: Lucilia cuprina 1st instar larvae; assay: Test against Lucilia cuprina larvae; type: in vivo; settings: 48 h, read-out: activity (larval mortality)
Description: (§1) Solvent: dimethyl sulfoxide
10 mg active compound are dissolve in 0.5 mL dimethyl sulfoxide. Serial dilutions are made to obtain the desired rates.
Approximately 20 Lucilia cuprina 1st instar larvae are transferred into a test tube containing 1 cm^3 of minced horse meat and 0.5 ml aqueous dilution of test compound. After 48 hrs percentage of larval mortality are recorded. 100% efficacy=all larvae are killed, […].

[5] = test system: Tobacco Cutworm (Spodoptera litura) Larvae; assay: Tobacco cutworm (Spodoptera litura) larvae, sweet potato leaf dip test; type: in vivo; settings: active compound concentration 20 ppm; dead larvae after 7 days
How it was run: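 Sweet potato leaves were dipped in DMF/emulsifier test solution at the set concentration and air-dried. Ten third-instar S. litura larvae were placed per dish at 25 °C, with fresh leaves added on days 2 and 4. Mortality was counted on day 7, given as % insecticidal activity averaged over two dishes.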

Musca domestica = assay: Test against Musca domestica; type: in vivo; settings: Musca domestica, 48 h, read-out: activity (mortality)
Description: as §1
To produce a suitable preparation of active compound, 10 mg of active compound are dissolved in 0.5 ml solvent, and the concentrate is diluted with water to the desired concentration. Prior to the assay, a piece of kitchen sponge is soaked with a mixture of sugar and compound solution and placed into a container. 10 adults (Musca domestica) are placed into the container and closed with a perforated lid. After 2 days mortality in % is determined. 100% means that all the flies have been killed; 0% means that none of the flies have been killed.

[6] = test system: adult engorged female Boophilus microplus ticks; assay: Test against Boophilus microplus (dip); type: in vivo; settings: Rhipicephalus microplus, 168 h, read-out: activity (mortality)
Description: as §1
To produce a suitable preparation of active compound, 10 mg of active compound are dissolved in 0.5 ml solvent, and the concentrate is diluted with water to the desired concentration. Eight to ten adult engorged female Boophilus microplus ticks are placed in perforated plastic beakers and immersed in aqueous compound solution for one minute. Ticks are transferred to a filter paper in a plastic tray. Egg deposition of fertile eggs is monitored after. After 7 days mortality in % is determined. 100% means that all the ticks have been killed; 0% means that none of the ticks have been killed.

[7] = test system: fall armyworm larvae (Spodoptera frugiperda); assay: Spodoptera frugiperda test (SPODFR spray application); type: in vivo; settings: application rate 500 g/ha; after 7 days
Description: To produce a suitable preparation of the active compound, 1 part by weight of active compound is mixed with the stated amount of solvent and emulsifier, and the concentrate is diluted with emulsifier-containing water to the desired concentration. Maize (Zea mais) leaf sections are sprayed with a preparation of the active ingredient of the desired concentration. Once dry, the leaf sections are infested with fall armyworm larvae (Spodoptera frugiperda). After 7 days mortality in % is determined. 100% means that all caterpillars have been killed and 0% means that none of the caterpillars have been killed.

[8] = test system: mustard beetle larvae (Phaedon cochleariae); assay: Phaedon cochleariae test (PHAECO spray application); type: in vivo; settings: application rate 500 g/ha; after 7 days
Description: To produce a suitable preparation of active compound, 1 part by weight of active compound is mixed with the stated amount of solvent and emulsifier, and the concentrate is diluted with emulsifier-containing water to the desired concentration. Chinese cabbage (Brassica pekinesis) leaf-disks are sprayed with a preparation of the active ingredient of the desired concentration. Once dry, the leaf disks are infested with mustard beetle larvae (Phaedon cochleariae). After 7 days mortality in % is determined. 100% means that all beetle larvae have been killed and 0% means that none of the beetle larvae have been killed.

[9] = log P by HPLC on reversed phase columns (EEC directive 79/831 Annex V.A8); type: physicochemical
Description: Calibration was done with not branched alkan2-ones (with 3 to 16 carbon atoms) with known log P-values (measurement of log P values using retention times with linear interpolation between successive alkanones). lambda-maX-values were determined using UV-spectra from 200 nm to 400 nm and the peak values of the chromatographic signals.

[10] = test system: two spotted spidermite (Tetranychus urticae), OP-resistant; assay: Tetranychus urticae test, OP-resistant (TETRUR spray application); type: in vivo; settings: application rate 500 g/ha; after 6 days
Description: To produce a suitable preparation of active compound, 1 part by weight of active compound is mixed with the stated amount of solvent and emulsifier, and the concentrate is diluted with emulsifier-containing water to the desired concentration. French beans (Phaseolus vulgaris) which are heavily infested with all stages of the two spotted spidermite (Tetranychus urticae), are sprayed with a preparation of the active ingredient at the desired concentration. After 6 days mortality in % is determined. 100% means that all spider mites have been killed and 0% means that none of the spider mites have been killed.

Thrips palmi = Thrips palmi spray test (THRIPL); type: in vivo; settings: active compound concentration 20 ppm; after 6 days
How it was run: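 Cucumber seedlings sprayed with compound formulated in DMF/polyoxyethylene alkyl phenyl ether and diluted in water, ammonium salt ± penetration enhancer at 1000 ppm added if needed. About 100 T. palmi eggs attached, plants held caged at 100% humidity, 23 °C. Percent activity scored from feeding damage after 6 days, 100 = no damage, 0 = as untreated.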

[11] = active compound concentration 20 ppm

`O=C(NCc1ccc(N2CCC(c3cc(C(F)(F)F)cc(C(F)(F)F)c3)(C(F)(F)F)C2O)cc1Cl)C1CC1` (stereo not drawn) [A1-27, N-(4-{3-[3,5-bis(trifluoromethyl)phenyl]-2-hydroxy-3-(trifluoromethyl)pyrrolidin-1-yl}-2-chlorobenzyl)cyclopropanecarboxamide] gave a mortality at 100 ppm (Ctenocephalides felis) of 100%, a pest or weed control at 20 ppm [1] of 100% and a pest or weed control at 20 ppm [2, 11] of 100%. For the same molecule, the pest or weed control at 20 ppm [3] was 100%, the mortality at 100 ppm [4] was 100% and the insecticidal activity [5] was 100%. The mortality at 100 ppm (Musca domestica) was 100%.

`CCC(=O)NCc1ccc(N2CCC(c3cc(Cl)cc(Cl)c3)(C(F)(F)F)C2O)cc1C(F)(F)F` (stereo not drawn) [A1-35, N-{4-[3-(3,5-dichlorophenyl)-2-hydroxy-3-(trifluoromethyl)pyrrolidin-1-yl]-2-(trifluoromethyl)benzyl}propanamide] gave a mortality at 100 ppm (Ctenocephalides felis) of 100%, a mortality at 20 ppm [6] of 100% and a pest or weed control at 20 ppm [1] of 100%. The pest or weed control at 20 ppm [2, 11] was 100%, the pest or weed control at 20 ppm [3] was 100% and the mortality at 100 ppm [4] was 100%.

In the case of `CCC(=O)NCc1cc(F)c(N2CCC(c3cc(Cl)cc(Cl)c3)(C(F)(F)F)C2O)nc1Cl` (stereo not drawn) [A3-356], the “activity (mortality)” value [7] is reported as 100%, the “activity (mortality)” value [8] is reported as 100% and the insecticidal activity [2, 11] is reported as 100%. The logP ([9]; HPLC on reversed phase columns) was 3.86 and the “activity (mortality)” value [10] was 100%.

With `O=C(NCc1ccc(N2CCC(c3cc(Cl)cc(Cl)c3F)(C(F)(F)F)C2O)cc1C(F)(F)F)C1CC1` (stereo not drawn) [A1-409, N-{4-[3-(3,5-dichloro-2-fluorophenyl)-2-hydroxy-3-(trifluoromethyl)pyrrolidin-1-yl]-2-(trifluoromethyl)benzyl}cyclopropanecarboxamide] the mortality at 100 ppm (Ctenocephalides felis) was 100%, the “insecticidal activity (by feeding damage degree)” value (Thrips palmi) was 98% and the mortality at 100 ppm [6] was 90%. For the same molecule, the pest or weed control at 4 ppm ([1]; active compound concentration 4 ppm) was 100%, the pest or weed control at 4 ppm [2] was 100% and the pest or weed control at 4 ppm [3] was 100%. The mortality at 100 ppm [4] was 100% and the mortality at 100 ppm (Musca domestica) was 100%.

In the case of `Cc1cc(N2CCC(c3cc(Cl)cc(Cl)c3)(C(F)(F)F)C2O)ccc1CNC(=O)C1CC1` (mixture of isomers) [A1-77], the “activity (mortality)” value [7] is reported as 100%, the “activity (mortality)” value [8] is reported as 100% and the “log P” value [9] is reported as 3.91.

In the case of `O=C(NCc1cc(F)c(N2CCC(c3cc(Cl)cc(Cl)c3)(C(F)(F)F)C2O)nc1Cl)C1CC1` (stereo not drawn) [A3-359], the “activity (mortality)” value [7] is reported as 100%, the “activity (mortality)” value [8] is reported as 100% and the “activity (mortality)” value [10] is reported as 100%.

Work on `CCC(=O)NCc1ccc(N2CCC(c3cc(Cl)c(Cl)c(Cl)c3)(C(F)(F)F)C2O)nc1C(F)(F)F` (stereo not drawn) [A3-13, N-({6-[2-hydroxy-3-(3,4,5-trichlorophenyl)-3-(trifluoromethyl)-pyrrolidin-1-yl]-2-(trifluoromethyl)pyridin-3-yl}methyl)propanamide] yielded a mortality at 100 ppm (Ctenocephalides felis) of 100%, a mortality at 20 ppm [6] of 100% and a pest or weed control at 20 ppm [1] of 100%. For the same molecule, the pest or weed control at 20 ppm [2, 11] was 100%, the pest or weed control at 20 ppm [3] was 100% and the mortality at 100 ppm [4] was 100%. The insecticidal activity [5] was 100% and the mortality at 100 ppm (Musca domestica) was 100%.

For `O=C(NCc1cnc(N2CCC(c3cc(C(F)(F)F)cc(C(F)(F)F)c3)(C(F)(F)F)C2O)cc1C(F)(F)F)C1CC1` (stereo not drawn) [A5-27, N-{[6-{3-[3,5-bis(trifluoromethyl)phenyl]-2-hydroxy-3-(trifluoromethyl)pyrrolidin-1-yl}-4-(trifluoromethyl)pyridin-3-yl]methyl}cyclopropanecarboxamide], the mortality at 100 ppm (Ctenocephalides felis) was 100%, the “insecticidal activity (by feeding damage degree)” value (Thrips palmi) was 90% and the mortality at 100 ppm [6] was 100%. The pest or weed control at 20 ppm [1] was 100%, the pest or weed control at 4 ppm [2] was 100% and the pest or weed control at 20 ppm [2, 11] was 100%. The pest or weed control at 4 ppm [3] was 100%, the pest or weed control at 20 ppm [3] was 100% and the mortality at 100 ppm [4] was 100%. It also gave a mortality at 100 ppm (Musca domestica) of 100%.

For `Cc1cc(N2CCC(c3cc(Cl)cc(Cl)c3)(C(F)(F)F)C2O)ccc1CNC(=O)CC(F)(F)F` (mixture of isomers) [A1-79], the “activity (mortality)” value [7] was 83%, the “activity (mortality)” value [8] was 100% and the “log P” value [9] was 4.09. The “activity (mortality)” value [10] was 90%.
